Experimental data reported in US20090227563A1, “HERBICIDAL COMPOSITIONS HAVING IMPROVED EFFECT” (Bayer CropScience AG, priority 2005, published 2009).

Columns and labels:
Experiment in all cases: Glasshouse trial on activity boost, post-emergence spraying, visual rating
Assay type in all cases: in vivo
Setaria viridis (SETVI) = system: Setaria viridis (SETVI)
Protocol: (§1) Seeds of monocot and dicot weeds and crop plants are sown in sandy loam soil in wood fibre pots or in plastic pots, and are covered with soil and cultivated under good growth conditions in the glasshouse and also, during the vegetation period, outdoors outside the glasshouse. 2-3 weeks after sowing, the trial plants are treated at the one- to three-leaf stage. The test compounds, formulated as wettable powders (WP) or liquids (EC), are applied by spraying to the plants and the soil surface in various doses, with a water application rate of 300 l/ha (converted) and with the addition of penetrants (0.2% to 0.4%) and where appropriate an ammonium salt. After the trial plants had stood in the glasshouse for about 3 to 4 weeks under optimum growth conditions, the activity of the products was rated visually in comparison to untreated controls (activity in %, i.e. 0%=no activity or as control, 100%=all plants died).
(§2) For rapeseed oil methyl ester (RME) the following tables specify concentration in % a.i. by volume for ammonium sulphate (AMS) in g/l in the spray liquor.
(§3) ALOMY=Alopecurus myosuroides AVEFA=Avena fatua LOLMU=Lolium multiflorum SETVI=Setaria viridis

[1] = system: Alopecurus myosuroides (ALOMY)
Protocol: as §1, §2
(§4) ALOMY=Alopecurus myosuroides AVEFA=Avena fatua LOLMU=Lolium multiflorum LOLRI=Lolium rigidum
as §3
(§5) ALOMY=Alopecurus myosuroides AVEFA=Avena fatua LOLMU=Lolium multiflorum SETVI=Setaria viridis BROER=Bromus erectus

Avena fatua (AVEFA) = system: Avena fatua (AVEFA)
Protocol: as §1, §2, §4, §3, §5

[2] = system: Lolium multiflorum (LOLMU)
Protocol: as §1, §2, §4, §3

[3] = 25 g/ha, RME (0.25%) + AMS (3.3 g/l)
[4] = 50 g/ha, RME (0.25%) + AMS (3.3 g/l)
[5] = 12.5 g/ha, RME (0.25%) + AMS (3.3 g/l)
[6] = 50 g/ha, RME (0.25%) + AMS (0.33 g/l)
[7] = 50 g/ha, RME (0.25%) + AMS (1 g/l)

Compound: CCc1cc(Br)cc(C)c1C1=C(O)C2(CCC(OC)CC2)NC1=O (centres unmarked) [I-1-a-1]
- Activity (Setaria viridis (SETVI); 25 g/ha, RME (0.25%)): 30%
- Activity (Setaria viridis (SETVI); [3]): 50%
- Activity (Setaria viridis (SETVI); 50 g/ha, RME (0.25%)): 40%
- Activity (Setaria viridis (SETVI); [4]): 50%

Compound: CCc1cc(Br)cc(Cl)c1C1=C(O)C(C)(C2CC2)NC1=O (centres unmarked) [I-1-a-2]
- Activity (Setaria viridis (SETVI); 12.5 g/ha, RME (0.25%)): 5%
- Activity (Setaria viridis (SETVI); [5]): 60%
- Activity (Setaria viridis (SETVI); 25 g/ha, RME (0.25%)): 20%
- Activity (Setaria viridis (SETVI); [3]): 90%
- Activity (Setaria viridis (SETVI); 50 g/ha, RME (0.25%)): 50%
- Activity (Setaria viridis (SETVI); [4]): 93%

Compound: CCc1cc(C)cc(OC)c1C1=C(O)C2CCCN2C1=O (centres unmarked) [I-1-a-3]
- Activity (Setaria viridis (SETVI); 25 g/ha, RME (0.25%)): 15%
- Activity (Setaria viridis (SETVI); [3]): 70%
- Activity (Setaria viridis (SETVI); 50 g/ha, RME (0.25%)): 93%
- Activity (Setaria viridis (SETVI); [4]): 95%
- Activity (Setaria viridis (SETVI); 100 g/ha, RME (0.25%)): 93%
- Activity (Setaria viridis (SETVI); 100 g/ha, RME (0.25%) + AMS (3.3 g/l)): 99%

Compound: CCc1cccc(CC)c1C1=C(O)[C@]2(CC[C@H](OC)CC2)NC1=O [I-1-a-4]
- Activity ([1]; 25 g/ha, RME (0.25%)): 3%
- Activity [1, 3]: 50%
- Activity ([1]; 50 g/ha, RME (0.25%)): 5%
- Activity [1, 4]: 70%
- Activity (Avena fatua (AVEFA); 25 g/ha, RME (0.25%)): 3%
- Activity (Avena fatua (AVEFA); [3]): 10%
- Activity (Avena fatua (AVEFA); 50 g/ha, RME (0.25%)): 5%
- Activity (Avena fatua (AVEFA); [4]): 30%
- Activity ([2]; 25 g/ha, RME (0.25%)): 2%
- Activity [2, 3]: 75%
- Activity ([2]; 50 g/ha, RME (0.25%)): 5%
- Activity [2, 4]: 90%

Compound: CCCCO[C@@H]1CCC[C@]2(C1)NC(=O)C(c1c(C)cc(C)cc1C)=C2O [I-1-a-5]
- Activity ([1]; 25 g/ha, RME (0.25%)): 25%
- Activity ([1]; 25 g/ha, RME (0.25%) + AMS (0.33 g/l)): 50%
- Activity ([1]; 25 g/ha, RME (0.25%) + AMS (1 g/l)): 50%
- Activity [1, 3]: 60%
- Activity ([2]; 50 g/ha, RME (0.25%)): 5%
- Activity [2, 6]: 60%
- Activity [2, 7]: 93%
- Activity [2, 4]: 95%

Compound: CCc1cc(C)cc(Br)c1C1=C(O)C(C)(C)NC1=O [I-1-a-6]
- Activity (Setaria viridis (SETVI); 12.5 g/ha, RME (0.25%)): 50%
- Activity (Setaria viridis (SETVI); 12.5 g/ha, RME (0.25%) + AMS (0.33 g/l)): 65%
- Activity (Setaria viridis (SETVI); 12.5 g/ha, RME (0.25%) + AMS (1 g/l)): 75%
- Activity (Setaria viridis (SETVI); [5]): 90%
- Activity ([2]; 50 g/ha, RME (0.25%)): 5%
- Activity [2, 6]: 20%
- Activity [2, 7]: 50%
- Activity [2, 4]: 65%

Compound: CCc1cc(Cl)ccc1C1=C(OC(=O)C(C)C)C2(CCC(C)CC2)NC1=O (centres unmarked) [I-1-b-1]
- Activity ([1]; 25 g/ha, RME (0.25%)): 5%
- Activity [1, 3]: 25%
- Activity ([1]; 50 g/ha, RME (0.25%)): 20%
- Activity [1, 4]: 75%
- Activity (Avena fatua (AVEFA); 25 g/ha, RME (0.25%)): 15%
- Activity (Avena fatua (AVEFA); [3]): 60%
- Activity (Avena fatua (AVEFA); 50 g/ha, RME (0.25%)): 50%
- Activity (Avena fatua (AVEFA); [4]): 60%
- Activity ([2]; 25 g/ha, RME (0.25%)): 10%
- Activity [2, 3]: 25%
- Activity ([2]; 50 g/ha, RME (0.25%)): 10%
- Activity [2, 4]: 75%
